Measured values from ChEMBL document CHEMBL1138876, “An introduction of a pyridine group into the structure of prolyl oligopeptidase inhibitors” (Bioorg Med Chem Lett, 2006).
Values after ≈ are worked out from the molar mass of the structure shown.

How the values were obtained:
[1] = Partition co-efficient, log P by shake-flask method; type: physicochemical; conditions: octanol/water
[2] = Solubility in phosphate buffer at pH 7.4; type: physicochemical
[3] = Inhibition of POP in pig brain; design: species or system Sus scrofa
[4] = Partition co-efficient, log P by pH metric titration; type: physicochemical; conditions: octanol/water
[5] = Dissociation constant, pKa of the compound; type: physicochemical

Structure (SMILES) | logP [1] | solubility [2] | IC50 [3] | logP [4] | pKa [5]
O=C([C@@H]1CCCN1C(=O)Cc1cccnc1)N1CCCC1 | – | – | 56 nM | -0.2 | –
O=C([C@@H]1CCCN1C(=O)c1cccnc1)N1CCCC1 | – | – | 44 nM | -0.3 | –
CC(C)(C)[C@H]1CC[C@@H](C(=O)N2CCCC2)N1C(=O)CCc1cccnc1 | – | – | 13 nM | 1.8 | –
O=C(NCc1ccccn1)C1=CCCC1C(=O)N1CCCC1 (stereo not drawn) | – | – | 24 nM | 0.3 | 4.4
O=C([C@@H]1CCCN1C(=O)CCCc1ccccc1)N1CCCC1 | – | > 6000 µg/mL | – | – | –
O=C(NCc1ccncc1)C1=CCCC1C(=O)N1CCCC1 (stereo not drawn) | – | – | 19 nM | 0.4 | 4.4
CC(C)(C)[C@H]1CC[C@@H](C(=O)N2CCCC2)N1C(=O)CCCc1ccccc1 | 3.3 | 900 µg/mL (≈ 2.43 mM) | – | – | –
O=C([C@@H]1CCCN1C(=O)CCc1cccnc1)N1CCCC1 | – | – | 30 nM | 0.3 | –

Other lines, results leading:

logP [1] | solubility [2] | IC50 [3] | logP [4] | pKa [5] | Structure (SMILES)
1.6 | 3000 µg/mL (≈ 10.1 mM) | 9 nM | – | – | O=C(NCc1ccccc1)C1=CCCC1C(=O)N1CCCC1 (stereo not drawn)
– | – | 2.2 nM | 0.6 | 4.4 | O=C(NCCc1cccnc1)C1=CCCC1C(=O)N1CCCC1 (stereo not drawn)
– | > 6000 µg/mL | 2.1 nM | 2 | – | CC(C)(C)[C@H]1CC[C@@H](C(=O)N2CCCC2)N1C(=O)CCCc1cccnc1
1.9 | – | 1.5 nM | – | – | O=C(NCCc1ccccc1)C1=CCCC1C(=O)N1CCCC1 (stereo not drawn)
– | – | 5.2 nM | 0.6 | 4.4 | O=C(NCCc1ccccn1)C1=CCCC1C(=O)N1CCCC1 (stereo not drawn)
– | > 6000 µg/mL | 9.7 nM | 0.4 | 4.4 | O=C(NCc1cccnc1)C1=CCCC1C(=O)N1CCCC1 (stereo not drawn)
– | – | 4.8 nM | 0.5 | 4.4 | O=C(NCCc1ccncc1)C1=CCCC1C(=O)N1CCCC1 (stereo not drawn)
